Data taken from paper PMC7523345 (Investigational new drugs, 2018).
“Also recorded” adds a separate entry of the source.

Assay: Phase I dose escalation study: safety, tolerability, DLT and MTD
Assay type: in vivo

Question: Which “Leucocytosis (drug related AE, Grade 3 and 4)” value (Arm A QD 2.0 mg (N = 7)) does the source give for Cc1cccc2c1NC(=O)[C@@H](NC(=O)[C@H](CCC(F)(F)F)[C@H](CCC(F)(F)F)C(N)=O)N=C2c1cccc(F)c1 [BMS-986115] here?
Answer: Its value is 0 n (%).

Question: And the “Mouth ulceration (drug related AE, all grades)” value (Arm A QD 2.0 mg (N = 7))?
Answer: The value was 1 (14) n (%).

Question: And the “Nausea (drug related AE, Grade 3 and 4)” value (Arm A QD 2.0 mg (N = 7))?
Answer: Its value is 1 (14) n (%).

Question: And the “Nausea (drug related AE, all grades)” value (Arm A QD 2.0 mg (N = 7))?
Answer: Its value is 5 (71) n (%).

Question: What about the “Pruritus (drug related AE, Grade 3 and 4)” value (Arm A QD 2.0 mg (N = 7)) of the same molecule?
Answer: Its value is 1 (14) n (%).

Question: And the “Pruritus (drug related AE, all grades)” value (Arm A QD 2.0 mg (N = 7))?
Answer: Its value is 3 (43) n (%).

Question: And the “Pulmonary embolism (drug related AE, Grade 3 and 4)” value (Arm A QD 2.0 mg (N = 7))?
Answer: The value was 0 n (%).

Question: What about the “Rash (drug related AE, all grades)” value (Arm A QD 2.0 mg (N = 7)) of the same molecule?
Answer: The value was 1 (14) n (%).

Question: And the “Rash maculopapular (drug related AE, all grades)” value (Arm A QD 2.0 mg (N = 7))?
Answer: Its value is 2 (29) n (%).

Question: What about the “Sinusitis (drug related AE, all grades)” value (Arm A QD 2.0 mg (N = 7)) of the same molecule?
Answer: Its value is 0 n (%).

Question: And the “Urticaria (drug related AE, Grade 3 and 4)” value (Arm A QD 2.0 mg (N = 7))?
Answer: Its value is 1 (14) n (%).

Question: What about the “Vision blurred (drug related AE, all grades)” value (Arm A QD 2.0 mg (N = 7)) of the same molecule?
Answer: The value was 0 n (%).

Question: What about the “Vomiting (drug related AE, Grade 3 and 4)” value (Arm A QD 2.0 mg (N = 7)) of the same molecule?
Answer: Its value is 1 (14) n (%).

Question: And the “Vomiting (drug related AE, all grades)” value (Arm A QD 2.0 mg (N = 7))?
Answer: The value was 5 (71) n (%).

Question: And the “Weight decreased (drug related AE, all grades)” value (Arm A QD 2.0 mg (N = 7))?
Answer: The value was 0 n (%).

Question: And the “No. of patients with DLTs” value (Arm A QD 2.0 mg, 5 DLT evaluable patients)?
Answer: The value was 3.

Question: What about the “Abdominal distension (drug related AE, all grades)” value (Arm A QD Total (N = 24)) of the same molecule?
Answer: Its value is 1 (4) n (%).

Question: And the “Abdominal pain (drug related AE, Grade 3 and 4)” value (Arm A QD Total (N = 24))?
Answer: The value was 1 (4) n (%).

Question: And the “Abdominal pain (drug related AE, all grades)” value (Arm A QD Total (N = 24))?
Answer: The value was 2 (8) n (%).

Question: And the “Blood creatinine increased (drug related AE, all grades)” value (Arm A QD Total (N = 24))?
Answer: Its value is 1 (4) n (%).

Question: What about the “Colitis (drug related AE, Grade 3 and 4)” value (Arm A QD Total (N = 24)) of the same molecule?
Answer: The value was 1 (4) n (%).

Question: And the “Cough (drug related AE, Grade 3 and 4)” value (Arm A QD Total (N = 24))?
Answer: Its value is 1 (4) n (%).

Question: And the “Cough (drug related AE, all grades)” value (Arm A QD Total (N = 24))?
Answer: The value was 3 (13) n (%).

Question: And the “Decreased Appetite (drug related AE, Grade 3 and 4)” value (Arm A QD Total (N = 24))?
Answer: Its value is 0 n (%).

Question: And the “Decreased Appetite (drug related AE, all grades)” value (Arm A QD Total (N = 24))?
Answer: Its value is 8 (33) n (%).

Question: What about the “Dehydration (drug related AE, Grade 3 and 4)” value (Arm A QD Total (N = 24)) of the same molecule?
Answer: The value was 0 n (%).

Question: What about the “Dehydration (drug related AE, all grades)” value (Arm A QD Total (N = 24)) of the same molecule?
Answer: The value was 3 (13) n (%).

Question: And the “Dermatitis acneiform (drug related AE, all grades)” value (Arm A QD Total (N = 24))?
Answer: Its value is 4 (17) n (%).

Question: And the “Diarrhoea (drug related AE, Grade 3 and 4)” value (Arm A QD Total (N = 24))?
Answer: The value was 4 (17) n (%).

Question: What about the “Diarrhoea (drug related AE, all grades)” value (Arm A QD Total (N = 24)) of the same molecule?
Answer: Its value is 18 (75) n (%).

Question: What about the “Dry mouth (drug related AE, all grades)” value (Arm A QD Total (N = 24)) of the same molecule?
Answer: Its value is 2 (8) n (%).

Question: And the “Dry skin (drug related AE, all grades)” value (Arm A QD Total (N = 24))?
Answer: The value was 3 (13) n (%).

Question: And the “Dysgeusia (drug related AE, all grades)” value (Arm A QD Total (N = 24))?
Answer: The value was 3 (13) n (%).

Question: And the “Dyspepsia (drug related AE, all grades)” value (Arm A QD Total (N = 24))?
Answer: The value was 2 (8) n (%).

Question: What about the “Dysphonia (drug related AE, all grades)” value (Arm A QD Total (N = 24)) of the same molecule?
Answer: The value was 4 (17) n (%).

Question: What about the “Fatigue (drug related AE, Grade 3 and 4)” value (Arm A QD Total (N = 24)) of the same molecule?
Answer: The value was 1 (4) n (%).

Question: And the “Fatigue (drug related AE, all grades)” value (Arm A QD Total (N = 24))?
Answer: Its value is 10 (42) n (%).

Question: What about the “Flatulence (drug related AE, all grades)” value (Arm A QD Total (N = 24)) of the same molecule?
Answer: Its value is 0 n (%).

Question: What about the “Hypocalcaemia (drug related AE, Grade 3 and 4)” value (Arm A QD Total (N = 24)) of the same molecule?
Answer: Its value is 0 n (%).

Question: What about the “Hypocalcaemia (drug related AE, all grades)” value (Arm A QD Total (N = 24)) of the same molecule?
Answer: The value was 1 (4) n (%).

Question: What about the “Hypokalaemia (drug related AE, Grade 3 and 4)” value (Arm A QD Total (N = 24)) of the same molecule?
Answer: Its value is 4 (17) n (%).

Question: And the “Hypokalaemia (drug related AE, all grades)” value (Arm A QD Total (N = 24))?
Answer: The value was 7 (29) n (%).

Question: And the “Hyponatraemia (drug related AE, Grade 3 and 4)” value (Arm A QD Total (N = 24))?
Answer: Its value is 1 (4) n (%).

Question: What about the “Hyponatraemia (drug related AE, all grades)” value (Arm A QD Total (N = 24)) of the same molecule?
Answer: Its value is 1 (4) n (%).

Question: And the “Hypophosphataemia (drug related AE, Grade 3 and 4)” value (Arm A QD Total (N = 24))?
Answer: The value was 8 (33) n (%).

Question: What about the “Hypophosphataemia (drug related AE, all grades)” value (Arm A QD Total (N = 24)) of the same molecule?
Answer: The value was 16 (67) n (%).

Question: And the “Ileus (drug related AE, Grade 3 and 4)” value (Arm A QD Total (N = 24))?
Answer: Its value is 1 (4) n (%).

Question: What about the “Increased upper airway secretion (drug related AE, all grades)” value (Arm A QD Total (N = 24)) of the same molecule?
Answer: Its value is 0 n (%).

Question: What about the “Laryngeal pain (drug related AE, all grades)” value (Arm A QD Total (N = 24)) of the same molecule?
Answer: The value was 2 (8) n (%).

Question: And the “Leucocytosis (drug related AE, Grade 3 and 4)” value (Arm A QD Total (N = 24))?
Answer: Its value is 0 n (%).

Question: And the “Mouth ulceration (drug related AE, all grades)” value (Arm A QD Total (N = 24))?
Answer: The value was 2 (8) n (%).

Question: What about the “Nausea (drug related AE, Grade 3 and 4)” value (Arm A QD Total (N = 24)) of the same molecule?
Answer: The value was 3 (13) n (%).

Question: And the “Nausea (drug related AE, all grades)” value (Arm A QD Total (N = 24))?
Answer: The value was 15 (63) n (%).

Question: What about the “Pruritus (drug related AE, Grade 3 and 4)” value (Arm A QD Total (N = 24)) of the same molecule?
Answer: The value was 1 (4) n (%).

Question: What about the “Pruritus (drug related AE, all grades)” value (Arm A QD Total (N = 24)) of the same molecule?
Answer: Its value is 6 (25) n (%).

Question: What about the “Pulmonary embolism (drug related AE, Grade 3 and 4)” value (Arm A QD Total (N = 24)) of the same molecule?
Answer: The value was 1 (4) n (%).

Question: And the “Rash (drug related AE, all grades)” value (Arm A QD Total (N = 24))?
Answer: Its value is 8 (33) n (%).

Question: What about the “Rash maculopapular (drug related AE, all grades)” value (Arm A QD Total (N = 24)) of the same molecule?
Answer: The value was 2 (8) n (%).

Question: What about the “Sinusitis (drug related AE, all grades)” value (Arm A QD Total (N = 24)) of the same molecule?
Answer: The value was 2 (8) n (%).

Question: And the “Urticaria (drug related AE, Grade 3 and 4)” value (Arm A QD Total (N = 24))?
Answer: Its value is 1 (4) n (%).

Question: What about the “Vision blurred (drug related AE, all grades)” value (Arm A QD Total (N = 24)) of the same molecule?
Answer: The value was 1 (4) n (%).

Question: What about the “Vomiting (drug related AE, Grade 3 and 4)” value (Arm A QD Total (N = 24)) of the same molecule?
Answer: Its value is 1 (4) n (%).

Question: What about the “Vomiting (drug related AE, all grades)” value (Arm A QD Total (N = 24)) of the same molecule?
Answer: The value was 12 (50) n (%).

Question: What about the “Weight decreased (drug related AE, all grades)” value (Arm A QD Total (N = 24)) of the same molecule?
Answer: Its value is 2 (8) n (%).

Question: What about the “Patients with dose limiting toxicities” value (Arm A QD, all dose levels) of the same molecule?
Answer: The value was “Four”.

Question: And the “Treatment-related SAEs, description” value (Arm A QD, one line per subject)?
Answer: Its value is “Gr 3 nausea with Gr 3 fatigue and Gr 4 hypophosphataemia; also recorded: Gr 3 ileus”.

Question: And the “Maximum Tolerated Dose (MTD)” value (Arm A, once daily (QD) oral dosing)?
Answer: Its value is 1.5 mg.

Question: What about the “Subjects with treatment-related SAEs” value (Arm B BIW) of the same molecule?
Answer: Its value is 2 subjects.

Question: What about the “Abdominal distension (drug related AE, all grades)” value (Arm B BIW 2 mg (N = 2)) of the same molecule?
Answer: Its value is 0 n (%).

Question: What about the “Abdominal pain (drug related AE, Grade 3 and 4)” value (Arm B BIW 2 mg (N = 2)) of the same molecule?
Answer: Its value is 0 n (%).
